According to ChEMBL document CHEMBL6114979, “Discovery of 3-indolylbenzoquinone derivatives with therapeutic potential for breast cancer” (Bioorg Med Chem, 2025):
Values after ≈ are worked out from the molar mass of the structure shown. Active and inactive are the calls of the source. No cut-off for these calls is given here.

Assays:
[1] = Toxicity in female Balb/c mouse implanted with mouse 4T1 cells assessed as change in spleen at 25 to 35 mg/kg, ip administered once every 2 days for 14 days; type: organism-based; conditions: in vivo, 48 h, dose 25-35 mg/kg, time 2 day
MDA-MB-231 [2] = test: Antiproliferative activity against human MDA-MB-231 cells assessed as inhibition of cell proliferation incubated for 48 hrs by CCK-8 assay; type: functional, cell-based; conditions: MDA-MB-231, 48 h
A549 = test: Antiproliferative activity against human A549 cells assessed as inhibition of cell proliferation incubated for 48 hrs by CCK-8 assay; type: functional, cell-based; conditions: A549, 48 h
HepG2 = test: Antiproliferative activity against human HepG2 cells assessed as inhibition of cell proliferation incubated for 48 hrs by CCK-8 assay; type: functional, cell-based; conditions: HepG2, 48 h
[3] = Solubility of compound in water; type: physicochemical
MDA-MB-231 [4] = test: Induction of apoptosis in human MDA-MB-231 cells assessed as late apoptotic cells at 1 uM incubated for 24 hrs by Annexin-V/PI staining based flow cytometric analysis (reference value: 3.24%); type: functional
MDA-MB-231 [5] = test: Induction of cell cycle arrest in human MDA-MB-231 cells assessed as accumulation of cells at G0/G1 phase at 1 uM incubated for 24 hrs by PI staining based flow cytometric analysis (reference value: 57.31%); type: functional
HUVEC = test: Cytotoxicity against human HUVEC cells; type: toxicity, cell-based
NIH3T3 = test: Cytotoxicity against mouse 3T3 cells; type: toxicity, cell-based
MDA-MB-231 [6] = test: Induction of apoptosis in human MDA-MB-231 cells assessed as increase in red fluorescence at 1 uM incubated for 24 hrs in presence of doxorubicin by fluorescence microscopic analysis; type: functional, cell-based
[7] = Toxicity in Kunming mouse assessed as change in liver lesions at 240 to 469 mg/kg, ip administered for 14 days by H and E staining based analysis; type: organism-based; conditions: in vivo, 336 h, dose 240-469 mg/kg, time 14 day
[8] = Toxicity in Kunming mouse assessed as change in kidney lesions at 240 to 469 mg/kg, ip administered for 14 days by H and E staining based analysis; type: organism-based; conditions: in vivo, 336 h, dose 240-469 mg/kg, time 14 day
[9] = Toxicity in Kunming mouse assessed as lethal dose administered intraperitoneally for 14 days; conditions: in vivo, route ip, time 14 day
[10] = Toxicity in female Balb/c mouse implanted with mouse 4T1 cells assessed as behavioural changes at 25 to 35 mg/kg, ip administered once every 2 days; type: organism-based; conditions: in vivo, 48 h, dose 25-35 mg/kg, time 2 day
[11] = Toxicity in Kunming mouse assessed as change in lung morphology at 240 to 469 mg/kg, ip administered for 14 days by H and E staining based analysis; type: organism-based; conditions: in vivo, 336 h, dose 240-469 mg/kg, time 14 day
[12] = Hepatotoxicity in Kunming mouse assessed as change in AST level administered intraperitoneally for 14 days (reference value: 153.25 +/- 15.26 U); type: toxicity; conditions: in vivo, ip, 336 h, time 14 day
[13] = Cardiotoxicity in Kunming mouse assessed as change in CK level administered intraperitoneally for 14 days (reference value: 851.75 +/- 87.81 U); type: toxicity; conditions: in vivo, ip, 336 h, time 14 day
4T1 [14] = test: Antitumor activity against mouse 4T1 cells implanted in Balb/c mouse assessed as reduction in tumor volume at 25 to 35 mg/kg, ip administered once every 2 days for 14 days; type: functional, organism-based; conditions: dose 25-35 mg/kg, time 14.0 day
4T1 [15] = test: Antitumor activity against mouse 4T1 cells implanted in Balb/c mouse assessed as tumor suppression rate at 35 mg/kg, ip administered once every 2 days for 14 days relative to control; type: functional
4T1 [16] = test: Antitumor activity against mouse 4T1 cells implanted in Balb/c mouse assessed as appearance of central tumor necrosis at 35 mg/kg, ip administered once every 2 days for 14 days relative to control; type: functional; conditions: time 14 day
[17] = Toxicity in female Balb/c mouse implanted with mouse 4T1 cells assessed as abnormalities in heart at 35 mg/kg, ip administered once every 2 days for 14 days; type: organism-based; conditions: in vivo, 336 h, time 14 day
[18] = Toxicity in female Balb/c mouse implanted with mouse 4T1 cells assessed as abnormalities in kidney at 35 mg/kg, ip administered once every 2 days for 14 days; type: organism-based; conditions: in vivo, 336 h, time 14 day
[19] = Toxicity in female Balb/c mouse implanted with mouse 4T1 cells assessed as abnormalities in lungs at 35 mg/kg, ip administered once every 2 days for 14 days; type: organism-based; conditions: in vivo, 336 h, time 14 day
[20] = Toxicity in female Balb/c mouse implanted with mouse 4T1 cells assessed as abnormal behaviour at 80 mg/kg, IT administered once every 4 days in presence of olive oil; type: organism-based; conditions: in vivo, other, 96 h
[21] = Toxicity in female Balb/c mouse implanted with mouse 4T1 cells assessed as mortality at 80 mg/kg, IT administered once every 4 days in presence of olive oil; type: organism-based; conditions: in vivo, other, 96 h
4T1 [22] = test: Antitumor activity against mouse 4T1 cells implanted in Balb/c mouse assessed as reduction in tumor weight at 80 mg/kg, IT administered once every 4 days in presence of olive oil; type: functional, organism-based
4T1 [23] = test: Antitumor activity against mouse 4T1 cells implanted in Balb/c mouse assessed as reduction in tumor volume at 80 mg/kg, IT administered once every 4 days in presence of olive oil; type: functional, organism-based
4T1 [24] = test: Antitumor activity against mouse 4T1 cells implanted in Balb/c mouse assessed as tumor inhibition rate at 80 mg/kg, IT administered once every 4 days in presence of olive oil relative to control; type: functional; design: scale not given: the % may be the effect or the level left
[25] = Toxicity in female Balb/c mouse implanted with mouse 4T1 cells assessed as change in body weight at 200 mg/kg, TOP administration once every 2 days for 14 days; type: organism-based; conditions: in vivo, topical_or_ocular, 336 h, time 14 day
4T1 [26] = test: Antitumor activity against mouse 4T1 cells implanted in Balb/c mouse assessed as appearance of chromatin aggregation at 80 mg/kg, IT administered once every 4 days for 14 days in presence of olive oil by TEM analysis; type: functional, organism-based; conditions: time 14.0 day
4T1 [27] = test: Antitumor activity against mouse 4T1 cells implanted in Balb/c mouse assessed as appearance of mitochondrial swelling at 80 mg/kg, IT administered once every 4 days for 14 days in presence of olive oil by TEM analysis; type: functional, organism-based; conditions: time 14.0 day
4T1 [28] = test: Antitumor activity against mouse 4T1 cells implanted in Balb/c mouse assessed as appearance of vacuolation at 200 mg/kg, TOP administration once every 2 days for 14 days; type: functional, organism-based; conditions: time 14.0 day
4T1 [29] = test: Antitumor activity against mouse 4T1 cells implanted in Balb/c mouse assessed as damage in endoplasmic reticulum at 25 to 35 mg/kg, ip administered once every 2 days for 14 days by TEM analysis; type: functional, organism-based; conditions: dose 25-35 mg/kg, time 14.0 day
4T1 [30] = test: Antitumor activity against mouse 4T1 cells implanted in Balb/c mouse assessed as damage in endoplasmic reticulum at 80 mg/kg, IT administered once every 4 days for 14 days in presence of olive oil by TEM analysis; type: functional, organism-based; conditions: time 14.0 day
4T1 [31] = test: Antitumor activity against mouse 4T1 cells implanted in Balb/c mouse assessed as damage in endoplasmic reticulum at 200 mg/kg, TOP administration once every 2 days for 14 days; type: functional, organism-based; conditions: time 14.0 day
[32] = target: Phosphatidylinositol 4,5-bisphosphate 3-kinase catalytic subunit alpha (Homo sapiens) (UniProt P42336); test: Binding affinity to P13Kalpha in human MDA-MB-231 cells assessed as thermal stabilization at 6.4 uM incubated for 2 hrs by CETSA based Western blotting analysis
Chain of Phosphatidylinositol 4,5-bisphosphate 3-kinase catalytic subunit alpha (Homo sapiens) (P42336 whole entry, looked up): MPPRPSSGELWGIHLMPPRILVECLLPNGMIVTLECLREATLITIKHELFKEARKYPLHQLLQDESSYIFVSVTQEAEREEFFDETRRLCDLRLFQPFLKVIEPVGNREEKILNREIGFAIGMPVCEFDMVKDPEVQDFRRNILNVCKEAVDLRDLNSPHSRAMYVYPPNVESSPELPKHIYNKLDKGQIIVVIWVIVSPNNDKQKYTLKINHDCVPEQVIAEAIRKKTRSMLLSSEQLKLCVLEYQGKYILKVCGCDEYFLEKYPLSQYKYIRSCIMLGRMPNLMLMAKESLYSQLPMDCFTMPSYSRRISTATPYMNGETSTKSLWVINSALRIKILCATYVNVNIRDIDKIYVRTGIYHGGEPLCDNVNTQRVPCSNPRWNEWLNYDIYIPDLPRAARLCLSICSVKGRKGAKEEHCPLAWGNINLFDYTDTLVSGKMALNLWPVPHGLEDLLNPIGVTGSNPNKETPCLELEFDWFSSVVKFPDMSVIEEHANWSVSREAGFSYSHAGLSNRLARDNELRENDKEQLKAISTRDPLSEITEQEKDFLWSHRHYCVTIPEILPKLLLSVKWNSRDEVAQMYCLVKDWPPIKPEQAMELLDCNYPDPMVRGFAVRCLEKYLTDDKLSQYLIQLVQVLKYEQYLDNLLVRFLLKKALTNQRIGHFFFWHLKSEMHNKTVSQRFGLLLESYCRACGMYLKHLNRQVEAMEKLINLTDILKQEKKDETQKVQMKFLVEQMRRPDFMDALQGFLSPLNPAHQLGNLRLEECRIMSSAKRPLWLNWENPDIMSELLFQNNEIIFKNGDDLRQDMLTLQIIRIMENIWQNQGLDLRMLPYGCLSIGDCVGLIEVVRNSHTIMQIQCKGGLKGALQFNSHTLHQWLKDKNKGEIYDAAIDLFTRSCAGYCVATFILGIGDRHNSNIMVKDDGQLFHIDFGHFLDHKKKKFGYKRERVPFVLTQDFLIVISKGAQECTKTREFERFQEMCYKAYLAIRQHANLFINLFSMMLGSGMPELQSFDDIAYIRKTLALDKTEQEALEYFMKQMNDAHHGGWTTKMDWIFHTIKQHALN

SMILES: Cc1[nH]c2ccccc2c1C1=C(F)C(=O)C(F)=C(N2CCOCC2)C1=O
- Activity [1]: Non-toxic
- IC50 (MDA-MB-231 [2]): 3.2 µM
- IC50 (A549): 5.21 µM
- IC50 (HepG2): 3.94 µM
- solubility [3]: 28 µg/mL (≈ 78.1 µM)
- Activity (MDA-MB-231 [4]): 26.4%
- Activity (MDA-MB-231 [5]): 32.15%
- Activity (HUVEC): Toxic
- Activity (NIH3T3): Toxic
- Activity (MDA-MB-231 [6]): Active; Compound Showed More Effect Than Mitoxantrone Treated Group
- Activity [7]: Non-toxic
- Activity [8]: Non-toxic
- LD50 at 336 h [9]: 385 mg/kg
- Activity [10]: Non-toxic
- Activity [11]: Non-toxic
- Activity [12]: 106 U/L
- Activity [13]: 812 U/L
- Activity (4T1 [14]): Active
- Activity (4T1 [15]): 50%
- Activity (4T1 [16]): 100%
- Activity [17]: Non-toxic
- Activity [18]: Non-toxic
- Activity [19]: Non-toxic
- Activity [20]: Non-toxic
- Activity [21]: Non-toxic
- Activity (4T1 [22]): Active
- Activity (4T1 [23]): Active
- Activity (4T1 [24]): 41.9%
- Activity [25]: Non-toxic
- Activity (4T1 [26]): Active
- Activity (4T1 [27]): Active
- Activity (4T1 [28]): Active
- Activity (4T1 [29]): Active
- Activity (4T1 [30]): Active
- Activity (4T1 [31]): Active
- Activity [32]: Active
